What all share (format): functional
Common to all, as to design: scale not given here

Experiment [1] concerns Schistosoma mansoni.
In experiment [2] the test system is Schistosoma mansoni. This is another data set of the same source.
Experiment [3] deals with Schistosoma mansoni. This is another data set of the same source.

As for `COc1ccc2nc(C)cc(Nc3cccc(O)c3)c2c1.Cl`, the Toxicity in the experiment on Schistosoma mansoni [1] came out at 2; in the experiment on Schistosoma mansoni [2], 0; with Schistosoma mansoni [3] it was 0.

For `CCOc1ccccc1NC(=O)CN1CCN(C(=O)c2ccco2)CC1`, the Toxicity with Schistosoma mansoni [1], in the experiment with Schistosoma mansoni [2] and with Schistosoma mansoni [3] was 0 throughout.

With `CCCN(CCC)CC(O)COc1ccccc1C(=O)Nc1ccccc1` (configuration not stated), the Toxicity with Schistosoma mansoni [1], in the experiment with Schistosoma mansoni [2] and with Schistosoma mansoni [3] was 0 each time.

For the molecule `COc1ccc(OC)c(C2C3=C(CC(C)(C)CC3=O)N(c3ccc(Cl)c(Cl)c3)C3=C2C(=O)CC(C)(C)C3)c1`, the values for the Toxicity with Schistosoma mansoni [1], in the experiment with Schistosoma mansoni [2] and in the experiment on Schistosoma mansoni [3] were 1, 0 and 1, respectively.

With `Cc1ccc(C2CC(C(F)(F)F)n3nc(C(=O)N4CCN(C(c5ccccc5)c5ccccc5)CC4)cc3N2)cc1` (configuration not stated), the Toxicity with Schistosoma mansoni [1], in the experiment on Schistosoma mansoni [2] and with Schistosoma mansoni [3] was 0 throughout.

Consider `CCCCNc1nc(NC(C)(C)C)nc(NC(C)(C)C)n1`, for which the Toxicity in the experiment on Schistosoma mansoni [1] stood at 0; in the experiment on Schistosoma mansoni [2] it was 4; in the experiment on Schistosoma mansoni [3], 4.

For the molecule `Cc1cc(C)c2c(c1)OCN(Cc1ccccc1Cl)C2`, the figures for the Toxicity in the experiment on Schistosoma mansoni [1], with Schistosoma mansoni [2] and in the experiment with Schistosoma mansoni [3] were 0, 0 and 2, respectively.

With `CCCc1c(C)nc2ccccc2c1O`, the Toxicity in the experiment on Schistosoma mansoni [1], in the experiment on Schistosoma mansoni [2] and in the experiment with Schistosoma mansoni [3] was 0 each time.

As for `CCOc1ccc2nc(C)cc(Nc3ccc(Br)cc3)c2c1`, the figures for the Toxicity with Schistosoma mansoni [1], in the experiment with Schistosoma mansoni [2] and with Schistosoma mansoni [3] were 2, 4 and 4, respectively.

On to `CCOc1ccccc1CN1CCc2nc3cc(C(C)(C)C)nn3c(O)c2C1`, for which the Toxicity in the experiment on Schistosoma mansoni [1] is given as 0; in the experiment on Schistosoma mansoni [2], 2; in the experiment with Schistosoma mansoni [3], 2.

As for `CC(C)(C)c1ccc(C2CC3=Nc4ccccc4N(C(=O)c4ccccc4Cl)C(c4ccc(F)cc4)C3=C(O)C2)cc1` (configuration not stated), the Toxicity came to 1 in the experiment on Schistosoma mansoni [1], 1 in the experiment on Schistosoma mansoni [2] and 4 in the experiment with Schistosoma mansoni [3].

Consider `O=C1c2ccc3c4c(ccc(c24)C(=O)N1CCCCO)C(=O)N(CCCCO)C3=O`, for which the Toxicity in the experiment on Schistosoma mansoni [1] is listed as 0; in the experiment with Schistosoma mansoni [2], 0; in the experiment with Schistosoma mansoni [3] it was 4.

Take `COc1cc(-c2nc(-c3ccc(Sc4ccccc4)cc3)c(-c3ccccc3)[nH]2)cc(OC)c1O`: the Toxicity in the experiment with Schistosoma mansoni [1], in the experiment on Schistosoma mansoni [2] and in the experiment with Schistosoma mansoni [3] was 0 throughout.

Consider `CN(C)c1ccc(N=Cc2ccc(N3CCOCC3)cc2)cc1`, for which the Toxicity with Schistosoma mansoni [1], in the experiment on Schistosoma mansoni [2] and in the experiment with Schistosoma mansoni [3] was 0 in each case.

For the molecule `CN1CCN(c2ncnc3c2[nH]c2ccc(Cl)cc23)CC1`, the Toxicity in the experiment with Schistosoma mansoni [1], with Schistosoma mansoni [2] and in the experiment on Schistosoma mansoni [3] was 0 each time.

Regarding `COc1cc(C(=O)ON=C(N)Cc2cccc3ccccc23)cc(OC)c1OC`, the Toxicity in the experiment on Schistosoma mansoni [1] is on record as 0; in the experiment with Schistosoma mansoni [2] it was 3; with Schistosoma mansoni [3] it was 4.

With `CCOc1c(Br)cc(C2C(C(=O)OC)=CN(C)C=C2C(=O)OC)cc1OC`, the Toxicity with Schistosoma mansoni [1], in the experiment with Schistosoma mansoni [2] and with Schistosoma mansoni [3] was 0 in each case.

As for `CCOC(=O)C1=C(C)N=c2sc(=Cc3ccccc3O)c(=O)n2C1c1ccc(OC)c2ccccc12` (configuration not stated), the Toxicity with Schistosoma mansoni [1] worked out at 0; in the experiment with Schistosoma mansoni [2], 0; in the experiment with Schistosoma mansoni [3], 4.

For the molecule `Cc1cc(Nc2ccc(C)c(Cl)c2)n2nc(C(F)(F)F)nc2n1`, the Toxicity in the experiment with Schistosoma mansoni [1], in the experiment with Schistosoma mansoni [2] and in the experiment on Schistosoma mansoni [3] was 0 each time.

For the molecule `O=C(Nc1ccc(CN2CCOCC2)cc1)c1ccc(-c2ccc(Br)cc2)o1`, the Toxicity with Schistosoma mansoni [1], with Schistosoma mansoni [2] and in the experiment with Schistosoma mansoni [3] was 0 in each case.

Consider `COc1ccc(C2c3ccc4ccccc4c3Oc3ncn(CCCN(C)C)c(=N)c32)cc1` (configuration not stated), for which the Toxicity with Schistosoma mansoni [1], in the experiment on Schistosoma mansoni [2] and with Schistosoma mansoni [3] was 4 throughout.

For the molecule `COc1cccc(C(=O)Nc2ccc(-c3nc4ccccc4[nH]3)cc2)c1`, the Toxicity in the experiment on Schistosoma mansoni [1], in the experiment with Schistosoma mansoni [2] and in the experiment with Schistosoma mansoni [3] was 0 throughout.

Consider `CCCCN(CCCC)S(=O)(=O)c1ccc(NC(=O)c2ccco2)cc1`, for which the Toxicity in the experiment with Schistosoma mansoni [1], with Schistosoma mansoni [2] and in the experiment with Schistosoma mansoni [3] was 0 throughout.

`CCCc1c(C)nc2ccc(Br)cc2c1O`: the Toxicity in the experiment on Schistosoma mansoni [1], in the experiment with Schistosoma mansoni [2] and with Schistosoma mansoni [3] was 0 each time.

Turning to `Cc1cccc(Nc2nc(N)c3ccccc3n2)c1.Cl`, the Toxicity in the experiment with Schistosoma mansoni [1] was 2; in the experiment on Schistosoma mansoni [2] it was 0; in the experiment on Schistosoma mansoni [3] it was 0.

`COc1cccc(-c2nn(C)c3sc(C(=O)NCCN4CCN(c5ccccc5F)CC4)cc23)c1`: the Toxicity came to 0 in the experiment on Schistosoma mansoni [1], 0 in the experiment with Schistosoma mansoni [2] and 3 in the experiment with Schistosoma mansoni [3].

In the case of `Cc1ccc(Nc2nc(N)c3ccccc3n2)cc1Cl`, the Toxicity with Schistosoma mansoni [1], in the experiment on Schistosoma mansoni [2] and with Schistosoma mansoni [3] was 2 throughout.

On to `CCOC(=O)c1cnc2c(C)cc(C)cc2c1Nc1ccc(OC)c(OC)c1`, for which the Toxicity worked out at 0 in the experiment on Schistosoma mansoni [1], 2 in the experiment with Schistosoma mansoni [2] and 0 in the experiment with Schistosoma mansoni [3].

Take `OC(CNC1CCCCC1)Cn1c2ccccc2c2ccccc21` (configuration not stated): the Toxicity with Schistosoma mansoni [1], in the experiment on Schistosoma mansoni [2] and in the experiment on Schistosoma mansoni [3] was 0 in each case.

With `Nc1ccn([C@@H]2O[C@H](CO)[C@@H](O)[C@H]2O)c(=O)n1` [CYTIDINE], the Toxicity in the experiment on Schistosoma mansoni [1], in the experiment on Schistosoma mansoni [2] and in the experiment on Schistosoma mansoni [3] was 0 in each case.

Regarding `CC(C)c1ccc(CNCC(O)c2ccccc2)cc1.Cl` (configuration not stated), the Toxicity in the experiment with Schistosoma mansoni [1], in the experiment on Schistosoma mansoni [2] and in the experiment on Schistosoma mansoni [3] was 0 in each case.

Regarding `OC(Cn1nnc2ccccc21)Cn1c2ccc(Br)cc2c2cc(Br)ccc21` (configuration not stated), the Toxicity in the experiment with Schistosoma mansoni [1], in the experiment with Schistosoma mansoni [2] and in the experiment with Schistosoma mansoni [3] was 0 each time.

Turning to `CCOc1ccccc1CNC(=O)C1c2ccccc2C(=O)N(CC(C)C)C1c1cccs1` (configuration not stated), the Toxicity in the experiment with Schistosoma mansoni [1] was determined as 0; with Schistosoma mansoni [2], 0; in the experiment with Schistosoma mansoni [3] it was 4.

Regarding `CCOC(=O)c1cnc2ccc(OC)cc2c1Nc1ccc(N2CCN(C)CC2)cc1`, the Toxicity stood at 0 in the experiment on Schistosoma mansoni [1], 4 in the experiment with Schistosoma mansoni [2] and 4 with Schistosoma mansoni [3].

As to `O=C(Nc1ccccc1O)c1ccc(Oc2cccc(C(=O)Nc3ccccc3O)c2)cc1`, the results for the Toxicity in the experiment on Schistosoma mansoni [1], with Schistosoma mansoni [2] and with Schistosoma mansoni [3] were 0, 2 and 2, respectively.

On to `CC(Oc1ccc(NC(=O)c2cccs2)cc1)C(=O)c1ccc(Cl)cc1` (configuration not stated), for which the Toxicity in the experiment on Schistosoma mansoni [1], in the experiment with Schistosoma mansoni [2] and with Schistosoma mansoni [3] was 0 in each case.

For the molecule `CSC1=NC(=Nc2c(C)cccc2C)C2(CCC(C(C)(C)C)CC2)N1c1ccc(Cl)cc1` (configuration not stated), the Toxicity in the experiment on Schistosoma mansoni [1] is recorded as 1; in the experiment with Schistosoma mansoni [2] it was 1; with Schistosoma mansoni [3], 0.

As for `OCCNc1nc(Nc2ccc(Cl)c(Cl)c2)nc2ccccc12`, the figures for the Toxicity in the experiment on Schistosoma mansoni [1], in the experiment on Schistosoma mansoni [2] and in the experiment with Schistosoma mansoni [3] were 2, 0 and 4, respectively.

In the case of `Brc1ccc(Nc2nc3ccccc3nc2Nc2ccc(Br)cc2)cc1`, the Toxicity in the experiment with Schistosoma mansoni [1] is reported as 3; in the experiment with Schistosoma mansoni [2], 4; in the experiment with Schistosoma mansoni [3], 4.

The record behind these values is ChEMBL document CHEMBL2363022, “Malaria Box Schistosomiasis Screening Data” (2013).
